PMC8037161 (International Journal of Molecular Sciences, 2021)
Values joined by “and” are separate entries in the source; they are usually repeats but may differ in a detail not shown here. Equal entries are not always repeated.

Assays:
pBR322 plasmid = test: Ethidium bromide assay, DNA-binding effect on plasmid pBR322; conditions: % fluorescence relative to controls
Text: Fluorescence readings are reported as % fluorescence relative to the controls.

calf thymus DNA = test: Ethidium displacement assay, apparent binding constant, calf thymus DNA; conditions: apparent association constant, ± 0.2 × 10^5 M^−1
Protocol: (§1) The fluorescence of DNA solutions (calf thymus DNA, T4 coliphage DNA, poly(dA-dT)2 and poly(dG-dC)2 with the investigated compound (final concentrations 10, 50, 100 μM) was measured by fluorescence spectrophotometer Infinite M200 TECAN at room temperature according to the procedure described above. The determination of DNA-binding constants was described in previous articles. The apparent binding constant was calculated from KEtBr [EtBr] = Kapp [drug], where [drug] = the concentration of the tested compound at 50% reduction of fluorescence and KEtBr and [EtBr] are known. The results are reported as a percentage of fluorescence decreases in Table 1.

[1] = test system: poly(dG-dC)2 (DNA, polymer) GC; test: ethidium bromide displacement, fluorescence; conditions: apparent; room temperature; ethidium bromide displaced; compound 10, 50, 100 µM
T4 coliphage DNA = test: Ethidium displacement assay, apparent binding constant, T4 coliphage DNA; conditions: apparent association constant, ± 0.2 × 10^5 M^−1
Text: The values of binding constants in the range of 0.7–6.4 × 10^5 M^−1 for T4 coliphage DNA for derivatives 1–18 was evidence of their minor-groove selectivity, because the major groove of T4 coliphage DNA is blocked by a-glycosylation of the 5-(hydroxymethyl)cytidine residues. […] All of the compounds bound to AT-rich sequences weaker than netropsin but some of them bound stronger to GC-rich sequences, e.g., compounds 3, 6, and 10.
as §1

[2] = test system: poly(dA-dT)2 (DNA, polymer) AT; test: ethidium bromide displacement, fluorescence; conditions: apparent; room temperature; ethidium bromide displaced; compound 10, 50, 100 µM
poly(dG-dC)2 = test: Ethidium displacement assay, apparent binding constant, poly(dG-dC)2; conditions: apparent association constant, ± 0.2 × 10^5 M^−1
Protocol: as §1

recombinant human DHFR = target: T1, recombinant human DHFR (Homo sapiens, UniProt P00374); test: Dihydrofolate reductase (DHFR) inhibition assay; format: biochemical; conditions: assay kit
T1 construct: purchased
T1 sequence (P00374 1-187): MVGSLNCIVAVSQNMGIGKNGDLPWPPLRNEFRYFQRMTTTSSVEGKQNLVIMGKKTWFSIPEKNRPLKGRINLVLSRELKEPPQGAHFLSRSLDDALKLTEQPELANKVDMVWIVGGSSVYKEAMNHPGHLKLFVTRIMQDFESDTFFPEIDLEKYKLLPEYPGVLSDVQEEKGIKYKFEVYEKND

poly(dA-dT)2 = test: Ethidium displacement assay, apparent binding constant, poly(dA-dT)2; conditions: apparent association constant, ± 0.2 × 10^5 M^−1
Protocol: as §1

| Structure (SMILES) | Decrease of Fluorescence (pBR322 plasmid) | Kapp [1] | Kapp [2] | Kapp poly (dG-dC)2 (poly(dG-dC)2) [M⁻¹] | IC50 (recombinant human DHFR) [µM] | Kapp Poly (dA-dT)2 (poly(dA-dT)2) [M⁻¹] | Kapp Calf Thymus DNA (calf thymus DNA) [M⁻¹] | Kapp T4 DNA (T4 coliphage DNA) [M⁻¹] |
| --- | --- | --- | --- | --- | --- | --- | --- | --- |
| COc1cc(C(=O)Nc2ccc(N)c(I)c2)cc(OC)c1OC [Compound 1] | 74.54% | 3.6 ± 0.2 × 10^5 M^−1 | 3.1 ± 0.2 × 10^5 M^−1 | 360000 | 21.89 ± 0.03 | 310000 | 300000 | 160000 |
| COc1cc(C(=O)Nc2ccc(F)c(N)c2)cc(OC)c1OC [Compound 2] | 52.89% | 3.0 ± 0.2 × 10^5 M^−1 | 1.9 ± 0.2 × 10^5 M^−1 | 300000 | 1.11 ± 0.02 | 190000 | 260000 | 260000 |
| COc1cc(C(=O)Nc2cc(N)ccc2Cl)cc(OC)c1OC [Compound 5] | 72.56% | 2.3 ± 0.2 × 10^5 M^−1 | 1.3 ± 0.2 × 10^5 M^−1 | 230000 | 30.02 ± 0.02 | 130000 | 270000 | 100000 |
| COc1cc(C(=O)Nc2ccc(N)nc2)cc(OC)c1OC [Compound 6] | 50.44% | 4.8 ± 0.2 × 10^5 M^−1 | 2.5 ± 0.2 × 10^5 M^−1 | 480000 | 0.99 ± 0.01 | 250000 | 400000 | 130000 |
| COc1ccc(C(=O)Nc2ccc(N)nc2)cc1OC [Compound 8] | 56.58% | 3.5 ± 0.2 × 10^5 M^−1 | 3.1 ± 0.2 × 10^5 M^−1 | 350000 | 10.59 ± 0.06 | 310000 | 250000 | 240000 |
| COc1cccc(C(=O)Nc2ccc(N)nc2)c1 [Compound 9] | 64.89% | 1.5 ± 0.2 × 10^5 M^−1 | 3.9 ± 0.2 × 10^5 M^−1 | 150000 | 56.05 ± 0.08 | 390000 | 390000 | 120000 |
| COc1cc(OC)cc(C(=O)Nc2cnc(N)nc2)c1 [Compound 10] | 70.11% | 4.7 ± 0.2 × 10^5 M^−1 | 1.1 ± 0.2 × 10^5 M^−1 | 470000 | 19.2 ± 0.01 | 110000 | 260000 | 70000 |
| COc1cccc(C(=O)Nc2cnc(N)nc2)c1 [Compound 11] | 54.54% | 2.5 ± 0.2 × 10^5 M^−1 | 2.6 ± 0.2 × 10^5 M^−1 | 250000 | 55.32 ± 0.02 | 260000 | 120000 | 310000 |
| COc1cc(/C=C/C(=O)Nc2cnc(N)nc2)cc(OC)c1OC [Compound 12] | 60.11% | 2.1 ± 0.2 × 10^5 M^−1 | 1.5 ± 0.2 × 10^5 M^−1 | 210000 | 26.01 ± 0.02 | 150000 | 210000 | 280000 |
| COc1cc(/C=C/C(=O)Nc2ccc(N)nc2)cc(OC)c1OC [Compound 15] | 68.82% | 2.4 ± 0.2 × 10^5 M^−1 | 3.1 ± 0.2 × 10^5 M^−1 | 240000 | 12.01 ± 0.01 | 310000 | 190000 | 230000 |
| CN(Cc1cnc2nc(N)nc(N)c2n1)c1ccc(C(=O)N[C@@H](CCC(=O)O)C(=O)O)cc1 [MTX, methotrexate, reference compound] | 100% |  |  |  |  |  |  |  |
| COc1cc(Cc2cnc(N)nc2N)cc(OC)c1OC [TMP, 2,4-diamino-5-(3,4,5-trimethoxybenzyl) pyrimidine, reference compound] | 100% |  |  |  |  |  |  |  |

Continued, in another order:

| Decrease of Fluorescence (pBR322 plasmid) | Kapp [1] | Kapp [2] | Kapp poly (dG-dC)2 (poly(dG-dC)2) [M⁻¹] | IC50 (recombinant human DHFR) [µM] | Kapp Poly (dA-dT)2 (poly(dA-dT)2) [M⁻¹] | Structure (SMILES) | Kapp Calf Thymus DNA (calf thymus DNA) [M⁻¹] | Kapp T4 DNA (T4 coliphage DNA) [M⁻¹] |
| --- | --- | --- | --- | --- | --- | --- | --- | --- |
| 68.85% | 5.3 ± 0.2 × 10^5 M^−1 | 4.3 ± 0.2 × 10^5 M^−1 | 530000 | 10.13 ± 0.09 | 430000 | COc1cc(C(=O)Nc2cc(N)ccc2F)cc(OC)c1OC [Compound 3] | 170000 | 410000 |
| 87.99% | 1.3 ± 0.2 × 10^5 M^−1 | 2.1 ± 0.2 × 10^5 M^−1 | 130000 | 5.02 ± 0.03 | 210000 | COc1cc(C(=O)Nc2ccc(N)c(Cl)c2)cc(OC)c1OC [Compound 4] | 230000 | 230000 |
| 66.89% | 2.3 ± 0.2 × 10^5 M^−1 | 3.4 ± 0.2 × 10^5 M^−1 | 230000 | 3.02 ± 0.09 | 340000 | COc1cc(OC)cc(C(=O)Nc2ccc(N)nc2)c1 [Compound 7] | 410000 | 210000 |
| 49.9% and 49.89% | 3.4 ± 0.2 × 10^5 M^−1 | 4.0 ± 0.2 × 10^5 M^−1 | 340000 | 0.89 ± 0.07 | 400000 | COc1cc(/C=C/C(=O)Nc2ccc(N)cc2)cc(OC)c1OC [Compound 13] | 190000 | 290000 |
| 43.85% | 4.2 ± 0.2 × 10^5 M^−1 | 8.9 ± 0.2 × 10^5 M^−1 | 420000 | 0.97 ± 0.02 | 890000 | COc1cc(NC(=O)/C=C/c2cc(OC)c(OC)c(OC)c2)ccc1N [Compound 14] | 490000 | 290000 |
| 57.77% | 3.8 ± 0.2 × 10^5 M^−1 | 2.7 ± 0.2 × 10^5 M^−1 | 380000 | 0.88 ± 0.02 | 270000 | COc1cc(/C=C/C(=O)Nc2ccc(Cl)c(N)c2)cc(OC)c1OC [Compound 16] | 130000 | 310000 |
| 41.68% | 2.5 ± 0.2 × 10^5 M^−1 | 0.5 ± 0.2 × 10^5 M^−1 | 250000 | 1.22 ± 0.05 | 50000 | COc1cc(/C=C/C(=O)Nc2ccc(F)c(N)c2)cc(OC)c1OC [Compound 17] | 180000 | 290000 |
